Laboratory results taken from patent US10844038B2, “1,2-dithiolane compounds useful in neuroprotection, autoimmune and cancer diseases and conditions” (SABILA BIOSCIENCES LLC, priority 2016, dated 2020).

target: MEK1 (Homo sapiens (Human), UniProt Q02750); experiment: KINOMEscan competition binding assay (Kd); details: read-out: Kd Values Against MEK Kinases Isoforms: MEK1
Method: (§1) KINOMEscan™ is based on a competition binding assay that quantitatively measures the ability of a test compound of the invention to compete with an immobilized, active-site directed ligand. The Kinase assay is performed by combining three components: DNA-tagged kinase; immobilized ligand; and a test compound. The ability of the test compound to compete with the immobilized ligand is measured via quantitative PCR of the DNA tag.
(§2) For most assays, kinase-tagged T7 phage strains were prepared in an E. coli host derived from the BL21 strain. E. coli were grown to log-phase and infected with T7 phage and incubated with shaking at 32° C. until lysis. The lysates were centrifuged and filtered to remove cell debris. The remaining kinases were produced in HEK-293 cells and subsequently tagged with DNA for qPCR detection. Streptavidin-coated magnetic beads were treated with biotinylated small molecule ligands for 30 minutes at room temperature to generate affinity resins for kinase assays. The liganded beads were blocked with excess biotin and washed with blocking buffer (SeaBlock (Pierce), 1% BSA, 0.05% Tween 20, 1 mM DTT) to remove unbound ligand and to reduce nonspecific binding. […] All reactions were performed in polystyrene 96-well plates in a final volume of 0.135 ml. […] The kinase concentration in the eluates was measured by qPCR.

MEK1, sequence (Q02750 whole entry, canonical isoform): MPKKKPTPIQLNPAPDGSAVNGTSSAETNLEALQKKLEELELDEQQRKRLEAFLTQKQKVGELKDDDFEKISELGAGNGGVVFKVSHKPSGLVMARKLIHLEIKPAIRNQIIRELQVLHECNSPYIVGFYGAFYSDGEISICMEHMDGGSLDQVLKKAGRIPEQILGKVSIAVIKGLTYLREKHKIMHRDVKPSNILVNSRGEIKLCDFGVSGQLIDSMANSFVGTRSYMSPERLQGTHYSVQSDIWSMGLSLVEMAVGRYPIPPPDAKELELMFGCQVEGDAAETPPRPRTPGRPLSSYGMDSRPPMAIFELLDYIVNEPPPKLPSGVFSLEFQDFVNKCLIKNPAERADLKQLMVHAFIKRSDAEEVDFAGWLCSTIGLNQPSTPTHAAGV

| Kd [nM] | Structure (SMILES) |
| --- | --- |
| 5 to 99 | Nc1ncnc2c1c(-c1ccc(Oc3ccccc3)cc1)nn2C[C@H]1SSC[C@@H]1O [43 B.] |
| 100 to 999 | Nc1ncnc2c1c(-c1ccc(Oc3ccccc3)cc1)nn2C[C@@H]1SSC[C@@H]1O [46 A.] |

target: MEK5 (Homo sapiens (Human), UniProt Q13163); experiment: KINOMEscan competition binding assay (Kd); details: Table 12, read-out: Kd Values Against MEK Kinases Isoforms: MEK5
Method: as §1, §2

MEK5, sequence (Q13163 whole entry, canonical isoform): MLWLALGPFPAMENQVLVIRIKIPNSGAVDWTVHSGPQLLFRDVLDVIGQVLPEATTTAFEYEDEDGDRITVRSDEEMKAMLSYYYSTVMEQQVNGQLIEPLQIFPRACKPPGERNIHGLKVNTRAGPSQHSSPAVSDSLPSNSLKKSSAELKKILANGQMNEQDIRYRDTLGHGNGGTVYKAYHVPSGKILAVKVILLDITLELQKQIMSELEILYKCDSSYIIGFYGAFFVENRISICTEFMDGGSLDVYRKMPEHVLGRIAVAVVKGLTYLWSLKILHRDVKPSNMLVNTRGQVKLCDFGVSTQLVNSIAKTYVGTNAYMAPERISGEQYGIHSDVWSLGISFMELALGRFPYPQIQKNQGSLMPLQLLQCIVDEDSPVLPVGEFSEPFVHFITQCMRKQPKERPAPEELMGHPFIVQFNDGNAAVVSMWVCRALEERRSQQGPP

| Kd [nM] | Structure (SMILES) |
| --- | --- |
| < 5 | Nc1ncnc2c1c(-c1ccc(Oc3ccccc3)cc1)nn2C[C@H]1SSC[C@@H]1O [43 B.] |
| < 5 | Nc1ncnc2c1c(-c1ccc(Oc3ccccc3)cc1)nn2C[C@@H]1SSC[C@@H]1O [46 A.] |

target: mTOR (Homo sapiens (Human), UniProt P42345); experiment: KINOMEscan competition binding assay (Kd); details: read-out: Kd Values Against mTOR Kinase: mTOR
Method: as §1, §2

| Kd [nM] | Structure (SMILES) |
| --- | --- |
| 100 to 999 | Nc1ncnc2c1c(-c1ccc(Oc3ccccc3)cc1)nn2C[C@H]1SSC[C@@H]1O [43 B.] |
| 100 to 999 | Nc1ncnc2c1c(-c1ccc(Oc3ccccc3)cc1)nn2C[C@@H]1SSC[C@@H]1O [46 A.] |

target: ARAF (Homo sapiens (Human), UniProt P10398); experiment: Radioisotope filter binding assay; type: biochemical; details: read-out: IC50 Activity Levels Against MAPK Pathway Kinases: ARAF
Method: (§3) 3. Radioisotope Filter Binding Assay:
(§4) In this assay format, it directly detects the true product without the use of modified substrates or coupling enzymes (Uitdehaag, J. C., et al. Br. J. Pharmacol. 2012, 166, 858-876; Hastie, C. J., et al. Nat. Protoc. 2006, 1, 968-971) according to equation 1. Substrate+[γ−^33P]−ATP→^33P-Substrate+ADP eq 1
(§5) The protocol calls for test compound of the invention to be incubated with kinase, substrate, cofactors, and radio-isotope-labeled ATP (^33P-gamma-ATP). The reaction mixtures are then spotted onto filter papers which bind the radioisotope labeled catalytic product. Unreacted phosphate is removed via washing. The reagents used include base reaction buffer; 20 mM Hepes (pH 7.5), 10 mM MgCl2, 1 mM EGTA, 0.02% Brij35, 0.02 mg/ml BSA, 0.1 mM Na3VO4, 2 mM DTT, 1% DMSO. The reaction procedure include the following steps: (1) prepare indicated substrate in freshly prepared base reaction buffer, (2) deliver any required cofactors to the substrate solution above, (3) deliver indicated kinase into the substrate solution and gently mix, (4) deliver compounds in DMSO into the kinase reaction mixture by Acoustic technology (Echo550; nanoliter range), incubate for 20 minutes at room temperature, (5) deliver ^33P-ATP (specific activity 10 μCi/μL) into the reaction mixture to initiate the reaction, (6) incubate kinase reaction for 2 hours at room temperature, (7) reactions are spotted onto P81 ion exchange paper, (8) detect kinase activity by filter-binding method.

| IC50 [nM] | Structure (SMILES) |
| --- | --- |
| 1000 to 10000 | Nc1ncnc2c1c(-c1ccc(Oc3ccccc3)cc1)nn2C[C@@H]1SSC[C@@H]1O [46 A.] |

target: BLK (Homo sapiens (Human), UniProt P51451); experiment: Radioisotope filter binding assay; type: biochemical; details: read-out: IC50 Activity Levels Against SRC Family Kinases: BLK
Method: as §3, §4, §5

BLK, sequence (P51451 whole entry): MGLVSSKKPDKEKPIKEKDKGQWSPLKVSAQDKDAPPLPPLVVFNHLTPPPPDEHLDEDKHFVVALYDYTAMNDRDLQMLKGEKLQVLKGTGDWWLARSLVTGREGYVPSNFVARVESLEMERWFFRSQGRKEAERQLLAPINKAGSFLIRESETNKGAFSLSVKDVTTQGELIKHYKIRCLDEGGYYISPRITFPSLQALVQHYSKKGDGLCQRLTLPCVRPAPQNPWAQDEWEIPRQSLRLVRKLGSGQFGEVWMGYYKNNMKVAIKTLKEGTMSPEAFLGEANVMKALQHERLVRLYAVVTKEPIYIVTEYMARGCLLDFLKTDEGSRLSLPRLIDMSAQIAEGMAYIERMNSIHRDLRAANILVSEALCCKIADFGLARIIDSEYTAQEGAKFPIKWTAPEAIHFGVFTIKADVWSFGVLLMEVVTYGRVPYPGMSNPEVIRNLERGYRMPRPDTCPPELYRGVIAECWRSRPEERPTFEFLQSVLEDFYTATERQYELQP

| IC50 [nM] | Structure (SMILES) |
| --- | --- |
| 5 to 99 | Nc1ncnc2c1c(-c1ccc(Oc3ccccc3)cc1)nn2C[C@H]1SSC[C@@H]1O [43 B.] |
| 5 to 99 | Nc1ncnc2c1c(-c1ccc(Oc3ccccc3)cc1)nn2C[C@@H]1SSC[C@@H]1O [46 A.] |

target: BRK (Homo sapiens (Human), UniProt Q13882); experiment: Radioisotope filter binding assay; type: biochemical; details: read-out: IC50 Activity Levels Against FRK Family Kinases: BRK
Method: as §3, §4, §5

| IC50 [nM] | Structure (SMILES) |
| --- | --- |
| 5 to 99 | Nc1ncnc2c1c(-c1ccc(Oc3ccccc3)cc1)nn2C[C@H]1SSC[C@@H]1O [43 B.] |
| 5 to 99 | Nc1ncnc2c1c(-c1ccc(Oc3ccccc3)cc1)nn2C[C@@H]1SSC[C@@H]1O [46 A.] |

target: BTK (Homo sapiens (Human), UniProt Q06187); experiment: Radioisotope filter binding assay; type: biochemical; details: read-out: IC50 Activity Levels Against Representative TEC Family Kinases: BTK
Method: as §3, §4, §5

BTK, sequence (Q06187 whole entry): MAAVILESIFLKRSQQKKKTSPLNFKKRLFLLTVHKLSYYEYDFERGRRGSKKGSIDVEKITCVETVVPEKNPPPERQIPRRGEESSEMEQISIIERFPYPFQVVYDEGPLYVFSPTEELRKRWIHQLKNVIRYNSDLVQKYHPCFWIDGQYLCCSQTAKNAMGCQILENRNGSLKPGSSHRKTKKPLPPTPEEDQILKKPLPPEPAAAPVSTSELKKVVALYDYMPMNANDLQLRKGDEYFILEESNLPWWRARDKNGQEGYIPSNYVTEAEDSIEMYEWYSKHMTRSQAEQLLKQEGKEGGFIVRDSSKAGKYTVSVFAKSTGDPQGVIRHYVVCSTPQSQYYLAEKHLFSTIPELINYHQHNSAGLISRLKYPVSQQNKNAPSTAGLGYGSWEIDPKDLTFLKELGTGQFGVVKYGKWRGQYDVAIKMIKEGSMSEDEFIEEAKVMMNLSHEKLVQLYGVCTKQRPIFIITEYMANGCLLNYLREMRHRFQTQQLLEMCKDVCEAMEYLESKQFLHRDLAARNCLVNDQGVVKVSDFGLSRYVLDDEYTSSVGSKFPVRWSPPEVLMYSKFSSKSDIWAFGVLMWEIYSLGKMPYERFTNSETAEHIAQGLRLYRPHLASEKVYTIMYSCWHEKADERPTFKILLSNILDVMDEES

| IC50 [nM] | Structure (SMILES) |
| --- | --- |
| 5 to 99 | Nc1ncnc2c1c(-c1ccc(Oc3ccccc3)cc1)nn2C[C@H]1SSC[C@@H]1O [43 B.] |
| 5 to 99 | Nc1ncnc2c1c(-c1ccc(Oc3ccccc3)cc1)nn2C[C@@H]1SSC[C@@H]1O [46 A.] |

target: CRAP (Homo sapiens (Human), UniProt P04049); experiment: Radioisotope filter binding assay; type: biochemical; details: read-out: IC50 Activity Levels Against MAPK Pathway Kinases: CRAP
Method: as §3, §4, §5

| IC50 [nM] | Structure (SMILES) |
| --- | --- |
| 1000 to 10000 | Nc1ncnc2c1c(-c1ccc(Oc3ccccc3)cc1)nn2C[C@@H]1SSC[C@@H]1O [46 A.] |

target: FGR (Homo sapiens (Human), UniProt P09769); experiment: Radioisotope filter binding assay; type: biochemical; details: read-out: IC50 Activity Levels Against SRC Family Kinases: FGR
Method: as §3, §4, §5

| IC50 [nM] | Structure (SMILES) |
| --- | --- |
| < 5 | Nc1ncnc2c1c(-c1ccc(Oc3ccccc3)cc1)nn2C[C@H]1SSC[C@@H]1O [43 B.] |
| 5 to 99 | Nc1ncnc2c1c(-c1ccc(Oc3ccccc3)cc1)nn2C[C@@H]1SSC[C@@H]1O [46 A.] |

target: FLT3 (Homo sapiens (Human), UniProt P36888); experiment: Radioisotope filter binding assay; type: biochemical; details: read-out: IC50 Activity Levels Against Type III NRT Kinases: FLT3
Method: as §3, §4, §5

| IC50 [nM] | Structure (SMILES) |
| --- | --- |
| 100 to 999 | Nc1ncnc2c1c(-c1ccc(Oc3ccccc3)cc1)nn2C[C@H]1SSC[C@@H]1O [43 B.] |
| 5 to 99 | Nc1ncnc2c1c(-c1ccc(Oc3ccccc3)cc1)nn2C[C@@H]1SSC[C@@H]1O [46 A.] |

target: FLT3-ITD; experiment: Radioisotope filter binding assay; type: biochemical; details: read-out: IC50 Activity Levels Against Type III NRT Kinases: FLT3-ITD
Method: as §3, §4, §5

| IC50 [nM] | Structure (SMILES) |
| --- | --- |
| 100 to 999 | Nc1ncnc2c1c(-c1ccc(Oc3ccccc3)cc1)nn2C[C@H]1SSC[C@@H]1O [43 B.] |
| 100 to 999 | Nc1ncnc2c1c(-c1ccc(Oc3ccccc3)cc1)nn2C[C@@H]1SSC[C@@H]1O [46 A.] |

target: FYN (Homo sapiens (Human), UniProt P06241); experiment: Radioisotope filter binding assay; type: biochemical; details: read-out: IC50 Activity Levels Against SRC Family Kinases: FYN
Method: as §3, §4, §5

FYN, sequence (P06241 whole entry): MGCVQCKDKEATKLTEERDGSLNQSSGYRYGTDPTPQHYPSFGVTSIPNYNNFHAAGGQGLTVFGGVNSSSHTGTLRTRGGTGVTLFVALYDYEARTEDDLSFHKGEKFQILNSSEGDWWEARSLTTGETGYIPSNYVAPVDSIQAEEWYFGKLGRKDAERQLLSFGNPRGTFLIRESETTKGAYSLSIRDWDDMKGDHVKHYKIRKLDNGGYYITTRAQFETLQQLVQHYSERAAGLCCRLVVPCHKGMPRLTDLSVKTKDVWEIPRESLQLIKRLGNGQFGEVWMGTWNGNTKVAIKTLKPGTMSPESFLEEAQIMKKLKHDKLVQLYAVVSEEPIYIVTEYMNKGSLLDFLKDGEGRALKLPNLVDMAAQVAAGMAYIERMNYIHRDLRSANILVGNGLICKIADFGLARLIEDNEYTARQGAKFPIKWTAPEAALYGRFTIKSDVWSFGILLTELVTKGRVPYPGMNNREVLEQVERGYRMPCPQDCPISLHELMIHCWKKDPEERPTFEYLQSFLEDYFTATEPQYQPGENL

| IC50 [nM] | Structure (SMILES) |
| --- | --- |
| < 5 | Nc1ncnc2c1c(-c1ccc(Oc3ccccc3)cc1)nn2C[C@H]1SSC[C@@H]1O [43 B.] |
| 5 to 99 | Nc1ncnc2c1c(-c1ccc(Oc3ccccc3)cc1)nn2C[C@@H]1SSC[C@@H]1O [46 A.] |

target: FYN-Y531F (Homo sapiens (Human), UniProt P06241, Y531F); experiment: Radioisotope filter binding assay; type: biochemical; details: read-out: IC50 Activity Levels Against FYN Mutant: FYN-Y531F
Method: as §3, §4, §5

FYN-Y531F, sequence (P06241 whole entry Y531F): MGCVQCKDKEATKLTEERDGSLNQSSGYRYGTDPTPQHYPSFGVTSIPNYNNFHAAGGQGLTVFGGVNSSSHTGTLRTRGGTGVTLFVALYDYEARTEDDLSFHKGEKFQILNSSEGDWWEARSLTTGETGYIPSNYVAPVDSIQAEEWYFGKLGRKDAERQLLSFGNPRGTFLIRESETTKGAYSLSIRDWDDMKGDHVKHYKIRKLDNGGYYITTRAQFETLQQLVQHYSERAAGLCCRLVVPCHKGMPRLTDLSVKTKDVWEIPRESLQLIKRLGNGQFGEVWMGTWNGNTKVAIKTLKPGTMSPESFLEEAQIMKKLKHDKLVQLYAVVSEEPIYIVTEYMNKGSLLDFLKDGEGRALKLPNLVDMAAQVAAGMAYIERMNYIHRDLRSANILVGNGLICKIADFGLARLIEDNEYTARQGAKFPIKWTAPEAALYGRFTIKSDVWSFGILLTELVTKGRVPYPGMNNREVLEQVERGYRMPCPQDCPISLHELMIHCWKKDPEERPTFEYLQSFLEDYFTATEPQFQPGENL

| IC50 [nM] | Structure (SMILES) |
| --- | --- |
| 100 to 999 | Nc1ncnc2c1c(-c1ccc(Oc3ccccc3)cc1)nn2C[C@H]1SSC[C@@H]1O [43 B.] |
| 5 to 99 | Nc1ncnc2c1c(-c1ccc(Oc3ccccc3)cc1)nn2C[C@@H]1SSC[C@@H]1O [46 A.] |

target: HCK (Homo sapiens (Human), UniProt P08631); experiment: Radioisotope filter binding assay; type: biochemical; details: read-out: IC50 Activity Levels Against SRC Family Kinases: HCK
Method: as §3, §4, §5

HCK, sequence (P08631 whole entry): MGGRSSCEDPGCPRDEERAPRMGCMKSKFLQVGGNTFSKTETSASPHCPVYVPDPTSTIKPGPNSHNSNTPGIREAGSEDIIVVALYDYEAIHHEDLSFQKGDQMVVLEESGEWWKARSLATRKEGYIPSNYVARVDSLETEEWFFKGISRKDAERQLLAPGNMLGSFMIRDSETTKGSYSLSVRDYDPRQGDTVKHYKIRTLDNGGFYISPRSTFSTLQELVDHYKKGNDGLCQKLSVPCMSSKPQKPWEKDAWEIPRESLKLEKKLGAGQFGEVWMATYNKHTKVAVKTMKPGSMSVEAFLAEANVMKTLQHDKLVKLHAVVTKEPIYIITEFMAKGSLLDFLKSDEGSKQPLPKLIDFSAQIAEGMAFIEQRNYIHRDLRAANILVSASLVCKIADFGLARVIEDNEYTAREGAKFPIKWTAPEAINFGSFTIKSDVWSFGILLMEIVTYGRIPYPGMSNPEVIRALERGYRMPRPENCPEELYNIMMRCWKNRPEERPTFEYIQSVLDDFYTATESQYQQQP

| IC50 [nM] | Structure (SMILES) |
| --- | --- |
| < 5 | Nc1ncnc2c1c(-c1ccc(Oc3ccccc3)cc1)nn2C[C@H]1SSC[C@@H]1O [43 B.] |
| 5 to 99 | Nc1ncnc2c1c(-c1ccc(Oc3ccccc3)cc1)nn2C[C@@H]1SSC[C@@H]1O [46 A.] |

target: LCK (Homo sapiens (Human), UniProt P06239); experiment: Radioisotope filter binding assay; type: biochemical; details: read-out: IC50 Activity Levels Against SRC Family Kinases: LCK
Method: as §3, §4, §5

| IC50 [nM] | Structure (SMILES) |
| --- | --- |
| < 5 | Nc1ncnc2c1c(-c1ccc(Oc3ccccc3)cc1)nn2C[C@H]1SSC[C@@H]1O [43 B.] |
| 5 to 99 | Nc1ncnc2c1c(-c1ccc(Oc3ccccc3)cc1)nn2C[C@@H]1SSC[C@@H]1O [46 A.] |

target: LYN (Homo sapiens (Human), UniProt P07948); experiment: Radioisotope filter binding assay; type: biochemical; details: read-out: IC50 Activity Levels Against SRC Family Kinases: LYN
Method: as §3, §4, §5

| IC50 [nM] | Structure (SMILES) |
| --- | --- |
| 5 to 99 | Nc1ncnc2c1c(-c1ccc(Oc3ccccc3)cc1)nn2C[C@H]1SSC[C@@H]1O [43 B.] |
| 100 to 999 | Nc1ncnc2c1c(-c1ccc(Oc3ccccc3)cc1)nn2C[C@@H]1SSC[C@@H]1O [46 A.] |

target: SRC (Homo sapiens (Human), UniProt P12931); experiment: Radioisotope filter binding assay; type: biochemical; details: read-out: IC50 Activity Levels Against SRC Family Kinases: SRC
Method: as §3, §4, §5

SRC, sequence (P12931 whole entry, looked up): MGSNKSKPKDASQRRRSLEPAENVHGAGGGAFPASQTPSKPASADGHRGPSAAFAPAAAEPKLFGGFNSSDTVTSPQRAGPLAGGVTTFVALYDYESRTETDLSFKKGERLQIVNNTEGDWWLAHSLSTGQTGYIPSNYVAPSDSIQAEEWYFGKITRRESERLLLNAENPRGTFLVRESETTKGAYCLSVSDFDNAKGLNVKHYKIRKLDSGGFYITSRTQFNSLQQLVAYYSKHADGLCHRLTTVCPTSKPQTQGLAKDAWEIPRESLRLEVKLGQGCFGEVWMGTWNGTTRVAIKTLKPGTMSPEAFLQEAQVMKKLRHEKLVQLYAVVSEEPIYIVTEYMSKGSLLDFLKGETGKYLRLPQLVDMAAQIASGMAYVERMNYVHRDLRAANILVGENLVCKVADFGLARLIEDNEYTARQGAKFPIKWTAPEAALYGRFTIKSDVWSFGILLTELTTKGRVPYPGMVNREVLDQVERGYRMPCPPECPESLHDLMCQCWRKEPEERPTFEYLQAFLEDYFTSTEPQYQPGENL

| IC50 [nM] | Structure (SMILES) |
| --- | --- |
| 5 to 99 | Nc1ncnc2c1c(-c1ccc(Oc3ccccc3)cc1)nn2C[C@H]1SSC[C@@H]1O [43 B.] |
| 100 to 999 | Nc1ncnc2c1c(-c1ccc(Oc3ccccc3)cc1)nn2C[C@@H]1SSC[C@@H]1O [46 A.] |

target: T1, YES1 (Homo sapiens (Human), UniProt P07947); experiment: Radioisotope filter binding assay; type: biochemical; details: read-out: IC50 Activity Levels Against SRC Family Kinases: YES1
Method: as §3, §4, §5

T1 sequence (P07947 whole entry): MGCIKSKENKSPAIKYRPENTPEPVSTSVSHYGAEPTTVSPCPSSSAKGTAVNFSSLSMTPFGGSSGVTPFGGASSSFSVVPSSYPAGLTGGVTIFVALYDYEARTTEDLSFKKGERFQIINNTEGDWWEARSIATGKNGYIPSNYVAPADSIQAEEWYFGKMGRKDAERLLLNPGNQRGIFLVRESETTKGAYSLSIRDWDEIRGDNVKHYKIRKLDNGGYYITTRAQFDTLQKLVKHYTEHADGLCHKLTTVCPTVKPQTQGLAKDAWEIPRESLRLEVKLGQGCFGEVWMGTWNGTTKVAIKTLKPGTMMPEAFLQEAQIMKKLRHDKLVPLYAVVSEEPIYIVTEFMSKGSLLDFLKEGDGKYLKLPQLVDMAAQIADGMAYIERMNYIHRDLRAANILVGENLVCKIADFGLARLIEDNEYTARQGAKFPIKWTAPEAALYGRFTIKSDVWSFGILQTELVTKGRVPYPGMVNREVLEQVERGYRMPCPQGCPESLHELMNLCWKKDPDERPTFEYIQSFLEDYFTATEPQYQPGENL

| IC50 [nM] | Structure (SMILES) |
| --- | --- |
| < 5 | Nc1ncnc2c1c(-c1ccc(Oc3ccccc3)cc1)nn2C[C@H]1SSC[C@@H]1O [43 B.] |
| < 5 | Nc1ncnc2c1c(-c1ccc(Oc3ccccc3)cc1)nn2C[C@@H]1SSC[C@@H]1O [46 A.] |

target: T1, YES1; experiment: Kinase binding assay CaPBA; details: read-out: IC50 Activity Levels Against FYN isoforms, YES1 and MEK5: YES1
Source text: 4. Kinase Binding Assay CaPBA:

| IC50 [nM] | Structure (SMILES) |
| --- | --- |
| < 5 | Nc1ncnc2c1c(-c1ccc(Oc3ccccc3)cc1)nn2C[C@H]1SSC[C@@H]1O [43 B.] |
